The source of these data is BindingDB's records for patent US11839613 (Idorsia Pharmaceuticals, 2023).

The structures appear in SMILES notation.

As usually defined, the IC50 is the concentration that inhibits the measured activity by half.

Experiment [1] has as its target Prostaglandin E2 receptor EP4 subtype (Homo sapiens, UniProt P35408). Description: hEP4 cAMP Assay.
Experimental: Cells are counted washed and resuspended in assay buffer (AB; HBSS, 20 mM HEPES, 0.2% BSA; 2 mM IBMX). […] Plate is pre-incubated 45 minutes at RT. Subsequently, 2.5 microliters of PGE2 (final conc. 6 nM) are transferred into the assay plate. Plate is incubated 30 minutes at RT. […] For each compound concentration the percentage of cAMP compared to DMSO control value as average ±STDEV (each concentration is measured in duplicate) is calculated.
Experiment [2] addresses Prostaglandin E2 receptor EP2 subtype (Homo sapiens, UniProt P43116). As to the kind of experiment: hEP2 cAMP Assay. How it is done: Cells are counted washed and resuspended in assay buffer (AB; HBSS, 20 mM HEPES, 0.2% BSA; 2 mM IBMX). […] Plate is pre-incubated 45 minutes at RT. […] Plate is incubated 30 minutes at RT.

Chain of Prostaglandin E2 receptor EP2 subtype (P43116 whole entry): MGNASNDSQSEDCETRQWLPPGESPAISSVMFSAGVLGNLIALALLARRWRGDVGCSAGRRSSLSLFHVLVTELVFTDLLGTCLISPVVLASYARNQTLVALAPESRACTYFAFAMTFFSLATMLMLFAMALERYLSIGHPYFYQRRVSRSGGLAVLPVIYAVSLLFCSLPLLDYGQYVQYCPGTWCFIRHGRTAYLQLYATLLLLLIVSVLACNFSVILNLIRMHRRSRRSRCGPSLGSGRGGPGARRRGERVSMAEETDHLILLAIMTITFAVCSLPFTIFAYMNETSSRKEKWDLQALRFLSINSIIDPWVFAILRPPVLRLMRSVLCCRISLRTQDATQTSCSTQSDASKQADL
Chain of Prostaglandin E2 receptor EP4 subtype (P35408 whole entry): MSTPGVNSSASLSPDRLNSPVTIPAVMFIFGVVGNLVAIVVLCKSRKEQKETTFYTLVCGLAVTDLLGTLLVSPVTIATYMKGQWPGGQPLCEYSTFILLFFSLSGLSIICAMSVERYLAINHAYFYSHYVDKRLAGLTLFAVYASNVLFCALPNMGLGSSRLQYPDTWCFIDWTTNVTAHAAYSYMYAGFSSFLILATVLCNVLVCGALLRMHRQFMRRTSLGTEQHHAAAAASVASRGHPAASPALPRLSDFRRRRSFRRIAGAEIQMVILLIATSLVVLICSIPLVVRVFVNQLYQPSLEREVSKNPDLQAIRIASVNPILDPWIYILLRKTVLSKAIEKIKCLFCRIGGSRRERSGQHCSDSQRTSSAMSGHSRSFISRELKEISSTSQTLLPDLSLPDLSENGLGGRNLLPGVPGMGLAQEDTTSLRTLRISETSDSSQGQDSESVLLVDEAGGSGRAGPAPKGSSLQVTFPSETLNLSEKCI

Take `CCCc1cc(-c2cc(NCCc3c(OC)cc4c(c3F)OCCO4)ncn2)ccc1CC(=O)O` [US11839613, Example 408]: the values for the IC50 in experiment [1] and in experiment [2] were 0.02 µM and 0.126 µM, respectively.

Turning to `CCCc1cc(-c2cc(NCCc3ccc4sccc4c3F)ncn2)ccc1C(=O)O` [US11839613, Example 378], the IC50 in experiment [1] came out at 0.066 µM; in experiment [2] it was 0.11 µM.

As to `COc1cc(-c2cc(NCCc3c(OC)cc4ccccc4c3C)ncn2)ccc1CC(=O)O` [US11839613, Example 384], the IC50 in experiment [1] amounted to 0.059 µM; in experiment [2], 0.577 µM.

Take `CCCc1cc(-c2cc(NCCc3c(OC)cc4ccccc4c3C)ncn2)ccc1C(=O)O` [US11839613, Example 380]: the results for the IC50 in experiment [1] and in experiment [2] were 0.054 µM and 0.124 µM, respectively.

Regarding `CCCc1cc(-c2cc(NCCc3cc4c(cc3OCC)OCCO4)ncn2)ccc1CC(=O)O` [US11839613, Example 402], the values for the IC50 in experiment [1] and in experiment [2] were 0.131 µM and 0.048 µM, respectively.

With `CCCc1cc(-c2cc(NCCc3c(OC)cc4ccccc4c3C)ncn2)ccc1CC(=O)O` [US11839613, Example 388], the values for the IC50 in experiment [1] and in experiment [2] were 0.051 µM and 0.626 µM, respectively.

Regarding `COc1cc2c(cc1CCNc1cc(-c3ccc(CC(=O)O)c(OC(F)(F)F)c3)ncn1)OCCO2` [US11839613, Example 450], the IC50 in experiment [1] was determined as 0.08 µM; in experiment [2], 0.165 µM.

Take `C#Cc1cc2c(cc1CCNc1cc(-c3ccc(C(=O)O)c(OCC)c3)ncn1)OCCO2` [US11839613, Example 439]: the IC50 in experiment [1] amounted to 0.139 µM; in experiment [2], 0.033 µM.

Consider `CCc1cc(-c2cc(NCCc3c(OC)cc4ccccc4c3C)ncn2)ccc1CC(=O)O` [US11839613, Example 445], for which the IC50 amounted to 0.104 µM in experiment [1] and 0.525 µM in experiment [2].

Consider `CCOc1cc2c(cc1CCNc1cc(-c3ccc(C(=O)O)c(CC(C)C)c3)ncn1)OCCO2` [US11839613, Example 417], for which the IC50 in experiment [1] worked out at 0.24 µM; in experiment [2] it was 0.031 µM.

Take `CCOc1cc2c(cc1CCNc1cc(-c3cc(F)c(CC(=O)O)c(OCC)c3)ncn1)OCCO2` [US11839613, Example 403]: the IC50 in experiment [1] amounted to 0.112 µM; in experiment [2], 0.135 µM.

On to `CCOc1cc(-c2cc(NCCc3cc4ccccc4cc3NC)ncn2)ccc1OCC(=O)O` [US11839613, Example 274], for which the figures for the IC50 in experiment [1] and in experiment [2] were 0.462 µM and 1.18 µM, respectively.

With `CCOc1cc(-c2cc(NCCc3c(OC)cc4c(c3C)OCCO4)ncn2)ccc1CC(=O)O` [US11839613, Example 399], the IC50 in experiment [1] was 0.048 µM; in experiment [2], 0.04 µM.

As for `CCOc1cc(-c2cc(NCCc3cc4ccsc4c(F)c3OC)ncn2)ccc1C(=O)O` [US11839613, Example 404], the IC50 in experiment [1] is 0.071 µM; in experiment [2], 0.027 µM.

As to `CCOc1cc(-c2cc(NCCc3cc(C)c4sccc4c3)ncn2)sc1C(=O)O` [US11839613, Example 391], the IC50 in experiment [1] stood at 0.006 µM; in experiment [2], 0.243 µM.

On to `COc1cc2c(c(C)c1CCNc1cc(-c3ccc(C(=O)O)c(OC4CCC4)c3)ncn1)OCCO2` [US11839613, Example 396], for which the values for the IC50 in experiment [1] and in experiment [2] were 0.02 µM and 0.001 µM, respectively.

With `CCOc1cc(-c2cc(NCCc3cc4ccsc4c(F)c3OC)ncn2)ccc1CC(=O)O` [US11839613, Example 406], the IC50 came to 0.101 µM in experiment [1] and 0.22 µM in experiment [2].

Turning to `CCOc1cc(-c2cc(NCCc3ccc4scc(Cl)c4c3)ncn2)ccc1CC(=O)O` [US11839613, Example 431], the IC50 came out at 0.043 µM in experiment [1] and 0.46 µM in experiment [2].

In the case of `CCOc1cc(-c2cc(NCCc3ccc4sccc4c3F)ncn2)ccc1C(=O)O` [US11839613, Example 365], the IC50 in experiment [1] was 0.055 µM; in experiment [2], 0.029 µM.

Regarding `COc1cc2c(c(C)c1CCNc1cc(-c3ccc(C(=O)O)c(OC(C)C)c3)ncn1)OCCO2` [US11839613, Example 432], the IC50 in experiment [1] amounted to 0.072 µM; in experiment [2], 0.01 µM.

Turning to `CCOc1cc(-c2cc(NCCc3cc4c(cc3OC(F)F)OCCO4)ncn2)sc1C(=O)O` [US11839613, Example 433], the IC50 was found to be 0.013 µM in experiment [1] and 0.057 µM in experiment [2].

Take `CCOc1cc(-c2cc(NCCc3ccc4sccc4c3F)ncn2)ccc1OCCC(=O)O` [US11839613, Example 421]: the IC50 in experiment [1] came out at 0.027 µM; in experiment [2] it was 0.247 µM.

In the case of `CCOc1cc(-c2cc(NCCc3cc4ccsc4cc3OC)ncn2)cc(F)c1CC(=O)O` [US11839613, Example 371], the IC50 in experiment [1] turned out to be 0.068 µM; in experiment [2], 0.048 µM.

With `CCOc1cc(-c2cc(NCCc3ccc4sccc4c3F)ncn2)cc(F)c1CC(=O)O` [US11839613, Example 375], the values for the IC50 in experiment [1] and in experiment [2] were 0.066 µM and 0.294 µM, respectively.

With `COc1c(CCNc2cc(-c3ccc(C(=O)O)c(CC(C)C)c3)ncn2)cc2ccsc2c1F` [US11839613, Example 415], the IC50 in experiment [1] was found to be 0.057 µM; in experiment [2], 0.106 µM.

In the case of `COc1c(CCNc2cc(-c3ccc(C(=O)O)c(SC)c3)ncn2)cc2ccsc2c1F` [US11839613, Example 405], the IC50 in experiment [1] is 0.018 µM; in experiment [2], 0.007 µM.

Regarding `CCOc1cc2c(cc1CCNc1cc(-c3ccc(CC(=O)O)c(OC(C)C)c3)ncn1)OCCO2` [US11839613, Example 425], the figures for the IC50 in experiment [1] and in experiment [2] were 0.356 µM and 0.226 µM, respectively.

Turning to `CCCOc1cc(-c2cc(NCCc3cc4ccsc4cc3OC)ncn2)ccc1CC(=O)O` [US11839613, Example 392], the IC50 in experiment [1] is 0.111 µM; in experiment [2], 0.156 µM.

In the case of `COc1cc2c(cc1CCNc1cc(-c3ccc(CC(=O)O)c(OC)c3)ncn1)OCCO2` [US11839613, Example 383], the results for the IC50 in experiment [1] and in experiment [2] were 0.27 µM and 0.65 µM, respectively.

Take `CCOc1cc(-c2cc(NCCc3c(OC)cc4ccccc4c3C)ncn2)cc(F)c1CC(=O)O` [US11839613, Example 374]: the IC50 was determined as 0.045 µM in experiment [1] and 0.304 µM in experiment [2].

On to `CCOc1cc(-c2cc(NCCc3cc(F)c4sccc4c3)ncn2)ccc1C(=O)O` [US11839613, Example 361], for which the results for the IC50 in experiment [1] and in experiment [2] were 0.068 µM and 0.27 µM, respectively.

For the compound `COc1cc(-c2cc(NCCc3ccc4sccc4c3F)ncn2)ccc1OCCC(=O)O` [US11839613, Example 437], the IC50 in experiment [1] was determined as 0.037 µM; in experiment [2], 0.227 µM.

In the case of `CCCc1cc(-c2cc(NCCc3cc4c(cc3OC)OCCO4)ncn2)ccc1C(=O)O` [US11839613, Example 379], the results for the IC50 in experiment [1] and in experiment [2] were 0.245 µM and 0.087 µM, respectively.

For `COc1cc2ccccc2c(C)c1CCNc1cc(-c2ccc(C(=O)O)c(OC3CC3)c2)ncn1` [US11839613, Example 448], the IC50 in experiment [1] was 0.026 µM; in experiment [2] it was 0.055 µM.

For `COc1cc2c(c(C)c1CCNc1cc(-c3ccc(CC(=O)O)c(OC(F)F)c3)ncn1)OCCO2` [US11839613, Example 441], the IC50 in experiment [1] was 0.031 µM; in experiment [2], 0.021 µM.

`CCOc1cc(-c2cc(NCCc3ccc4ccsc4c3C)ncn2)sc1C(=O)O` [US11839613, Example 376]: the IC50 in experiment [1] was determined as 0.011 µM; in experiment [2], 0.188 µM.

Consider `CCOc1cc(-c2cc(NCCc3cc(F)c4sccc4c3)ncn2)ccc1CC(=O)O` [US11839613, Example 363], for which the IC50 was determined as 0.035 µM in experiment [1] and 0.534 µM in experiment [2].

Regarding `CCOc1cc2c(cc1CCNc1cc(-c3ccc(CC(=O)O)c(CC(C)C)c3)ncn1)OCCO2` [US11839613, Example 412], the IC50 in experiment [1] was 0.079 µM; in experiment [2], 0.057 µM.

Regarding `CCOc1cc(-c2cc(NCCc3ccc4sccc4c3)ncn2)cc(F)c1CC(=O)O` [US11839613, Example 370], the IC50 in experiment [1] was 0.081 µM; in experiment [2], 0.312 µM.

Regarding `CC(C)Cc1cc(-c2cc(NCCc3cc(F)c4sccc4c3)ncn2)ccc1C(=O)O` [US11839613, Example 414], the figures for the IC50 in experiment [1] and in experiment [2] were 0.088 µM and 0.505 µM, respectively.
